Test results as given in ChEMBL document CHEMBL4483862, “Open-source discovery of chemical leads for next-generation chemoprotective antimalarials” (2018).

Tested on: Plasmodium berghei
Assay: Luciferase/luciferin-expressing antifolate-resistant parasites were used to infect a culture of HepG2 cells that were pre-incubated with compounds. Infected hepatocytes emit light due to the luciferase reaction. Assay results are presented as the percent inhibition of light emission compared to control. […]
Format: functional
Details: sporozoite; for IC90: read-out: LUCIFERASE INFECTION ASSAY - IC90
[1] = read-out: LUCIFERASE INFECTION ASSAY - IC50

Compound	IC50 [1] [µM]	IC90 [µM]	also measured
Cc1nnnn1/C(=C\c1ccccc1)C(=O)OCCOc1ccccc1Cl	> 10	> 10	
COc1ccc(/C=C(/C(=O)Nc2ccc(C)c(C)c2)c2nc3ccccc3s2)cc1		3.66	IC50 (HEPG2TOX_HILL_SLOPE 13.8, HEPG2TOX_R_SQUARED 0.904, PBLUC_HILL_SLOPE 19.4, PBLUC_R_SQUARED 0.196, read-out: LUCIFERASE INFECTION ASSAY - IC50): 3.27 µM
Cc1cccc(-n2cc(-c3ccccc3)c3c(N4CCN(CCO)CC4)ncnc32)c1	> 10	> 10	
c1ccc2sc(-c3nc4ccccc4s3)nc2c1		> 10	IC50 (PBLUC_HILL_SLOPE 0.811, PBLUC_R_SQUARED 0.754, read-out: LUCIFERASE INFECTION ASSAY - IC50): 1.16 µM
CCOC(=O)c1c(-c2ccc(Cl)cc2)csc1NC(=O)CSc1nc2c(c(CC)c1C#N)C(=O)CC(C)(C)C2		> 10	IC50 (FFLUC_HILL_SLOPE 17.7, FFLUC_R_SQUARED 0.746, PBLUC_HILL_SLOPE 12.9, PBLUC_R_SQUARED 0.506, read-out: LUCIFERASE INFECTION ASSAY - IC50): 9.02 µM
Cc1ccc(N2C(=N)C(=S)N(c3ccc(Cl)c(Cl)c3)C2=O)cc1	> 9.06	> 9.06	
CN(Cc1ccc(N2CCCCC2)cc1)C(=O)c1cc(-c2cccnc2)nc2ccccc12		> 10	IC50 (HEPG2TOX_HILL_SLOPE 0.393, HEPG2TOX_R_SQUARED 0.924, PBLUC_HILL_SLOPE 2.39, PBLUC_R_SQUARED 0.338, read-out: LUCIFERASE INFECTION ASSAY - IC50): 4.33 µM
CCN(Cc1ccc2c(c1)OCO2)C(=O)/C=C/c1c(C)nc2sc(C)cn12		> 10	IC50 (PBLUC_HILL_SLOPE 2.08, PBLUC_R_SQUARED 0.691, read-out: LUCIFERASE INFECTION ASSAY - IC50): 8.61 µM
Cc1occc1NC(=O)N1[C@@H]2CC[C@@H](C2)[C@H]1c1nc2cccc(OCc3ccc(F)cc3)c2[nH]1	> 10	> 10	
O=[N+]([O-])c1cnc(Sc2nnc(O)n2-c2ccc(OCc3ccccc3)cc2)s1	3.81	> 7.72	
Cc1ccc(NS(=O)(=O)c2ccc(NN=CC3C(=O)N(c4cccc(C(F)(F)F)c4)C(=O)c4ccccc43)c([N+](=O)[O-])c2)c(C)c1 (stereo not drawn)		> 10	IC50 (PBLUC_HILL_SLOPE 19.2, PBLUC_R_SQUARED 0.393, read-out: LUCIFERASE INFECTION ASSAY - IC50): 9.75 µM
COc1ccc(Cc2nnc(SCC(=O)/C(C#N)=C(\C)N)n2-c2ccc(Oc3ccccc3)cc2)cc1OC	> 10	> 10	
O=C(NCCSCc1c(F)cccc1Cl)c1cccs1		> 10	IC50 (PBLUC_HILL_SLOPE 2.01, PBLUC_R_SQUARED 0.48, read-out: LUCIFERASE INFECTION ASSAY - IC50): 3.94 µM
Cn1c(SCC#N)nnc1-c1ccc(C(C)(C)C)cc1		1.34	IC50 (PBLUC_HILL_SLOPE 23.6, PBLUC_R_SQUARED 0.364, read-out: LUCIFERASE INFECTION ASSAY - IC50): 1.22 µM
COc1ccc(-c2cnc3sc(NCc4ccncc4)nn23)cc1OC	> 8.98	> 8.98	
CC1CC(C)CN(S(=O)(=O)N2CCN(c3ccc(C(F)(F)F)cc3[N+](=O)[O-])CC2)C1 (stereo not drawn)	> 10	> 10	
CC(=O)c1cccc(-c2cnc3cnc(-c4cccc(F)c4)cn23)c1		> 9.96	IC50 (PBLUC_HILL_SLOPE 3, PBLUC_R_SQUARED 0.624, read-out: LUCIFERASE INFECTION ASSAY - IC50): 7.54 µM
CC(C(=O)Nc1cccc(C#N)c1)N1CCN(c2ncccn2)CC1 (stereo not drawn)	> 10	> 10	
Cc1cc2ncn(CC(O)CN3CCOCC3)c2cc1C (stereo not drawn)	> 10	> 10	
CC(C)(C)C(=O)N1CCC(C(=O)N(Cc2ccccc2)c2nc3c(s2)CCCC3)CC1	> 10	> 10	
O=C1CN(C(=O)CNC(c2ccccc2)c2cccs2)c2ccccc2N1 (stereo not drawn)	> 10	> 10	
O=c1nc(SCc2ccc(Cl)cc2Cl)[nH]c2ccccc12	> 9.79	> 9.79	
CCCc1c(NC(=O)Nc2cc(C(F)(F)F)cc(C(F)(F)F)c2)cnn1-c1ccccc1		3.79	IC50 (FFLUC_HILL_SLOPE 11.3, FFLUC_R_SQUARED 0.657, HEPG2TOX_HILL_SLOPE 5.77, HEPG2TOX_R_SQUARED 0.944, PBLUC_HILL_SLOPE 9.21, PBLUC_R_SQUARED 0.384, read-out: LUCIFERASE INFECTION ASSAY - IC50): 2.99 µM
CC(=O)N1CCN(c2nc(CC(C)C)c3c(c2C#N)CCCC3)CC1		> 9.69	IC50 (FFLUC_HILL_SLOPE 6.37, FFLUC_R_SQUARED 0.032, PBLUC_HILL_SLOPE 12.2, PBLUC_R_SQUARED 0.0332, read-out: LUCIFERASE INFECTION ASSAY - IC50): 8.99 µM
Cc1cc2ncc(-c3ccnc(SCC(=O)Nc4cccc(C(F)(F)F)c4)n3)c(C)n2n1	> 7.2	> 7.2	

Compound	IC50 [1] [µM]	IC90 [µM]	also measured
COC(=O)c1ccc2c(=O)n(-c3ccccc3)c(SCC3CCCCO3)nc2c1 (stereo not drawn)	> 10	> 10	
CN(C)C(=O)Cc1nc(CSc2nc3ncccn3n2)cs1	> 10	> 10	
CCC(C)(C)NS(=O)(=O)c1ccc(C(C)(C)C)cc1		> 10	IC50 (PBLUC_HILL_SLOPE 1.46, PBLUC_R_SQUARED 0.189, read-out: LUCIFERASE INFECTION ASSAY - IC50): > 10 µM
Cc1cc(C(=O)COc2ccccc2C(N)=O)c(C)n1C(C)c1ccccc1 (stereo not drawn)		> 10	IC50 (HEPG2TOX_HILL_SLOPE 1.33, HEPG2TOX_R_SQUARED 0.859, PBLUC_HILL_SLOPE 2.23, PBLUC_R_SQUARED 0.779, read-out: LUCIFERASE INFECTION ASSAY - IC50): 4.55 µM
COc1ccccc1N(CC(=O)NCC12CC3CC(CC(C3)C1)C2)S(=O)(=O)c1ccccc1		> 10	IC50 (HEPG2TOX_HILL_SLOPE 6.27, HEPG2TOX_R_SQUARED 0.869, read-out: LUCIFERASE INFECTION ASSAY - IC50): > 10 µM
CN(C)C(=O)c1cccc(-c2cn3c(-c4ccc(C(C)(C)C)cc4)cnc3cn2)c1		> 8.28	IC50 (PBLUC_HILL_SLOPE 1.19, PBLUC_R_SQUARED 0.783, read-out: LUCIFERASE INFECTION ASSAY - IC50): 2.27 µM
N#Cc1ccc(-c2cnc3ccc(NCc4ccc(S(N)(=O)=O)cc4)nn23)cc1		3.66	IC50 (HEPG2TOX_HILL_SLOPE 8.58, HEPG2TOX_R_SQUARED 0.551, PBLUC_HILL_SLOPE 11.6, PBLUC_R_SQUARED 0.236, read-out: LUCIFERASE INFECTION ASSAY - IC50): 3.03 µM
O=C(NNC1=NN(c2ccccc2)c2ccc(Br)cc2N1)c1ccc(F)cc1		> 10	IC50 (FFLUC_HILL_SLOPE 3.33, FFLUC_R_SQUARED 0.811, read-out: LUCIFERASE INFECTION ASSAY - IC50): > 10 µM
O=C(/C=C/c1cccc(NC(=O)C(F)(F)F)c1)c1cc2ccccc2o1		5.08	IC50 (HEPG2TOX_HILL_SLOPE 11, HEPG2TOX_R_SQUARED 0.396, PBLUC_HILL_SLOPE 8.92, PBLUC_R_SQUARED 0.395, read-out: LUCIFERASE INFECTION ASSAY - IC50): 3.97 µM
COc1ccc2cc(C(=O)NNC(=O)c3ccccn3)c(C)nc2c1	8.4	> 10	
CN(C)c1ccccc1-c1cn2c(-c3cccc(O)c3)cnc2cn1	> 9.99	> 9.99	
CC/N=c1\scc(-c2cc(C)c(C)cc2C)n1/N=C/c1c[nH]c2ccccc12		6.13	IC50 (PBLUC_HILL_SLOPE 4.53, PBLUC_R_SQUARED 0.847, read-out: LUCIFERASE INFECTION ASSAY - IC50): 3.77 µM
CC(C)Oc1cccc(-c2cn3c(-c4ccccc4Cl)cnc3cn2)c1	> 9.07	> 9.07	
COc1cc(OC)cc(C(=O)Nc2nc3ccccn3c2C(=O)NC2CCCC2)c1		3.15	IC50 (PBLUC_HILL_SLOPE 13.4, PBLUC_R_SQUARED 0.275, read-out: LUCIFERASE INFECTION ASSAY - IC50): 2.68 µM
CCc1ccccc1Nc1c(Cl)c(C)nc2ncnn12		> 11.5	IC50 (HEPG2TOX_HILL_SLOPE 1.69, HEPG2TOX_R_SQUARED 0.869, PBLUC_HILL_SLOPE 4.69, PBLUC_R_SQUARED 0.317, read-out: LUCIFERASE INFECTION ASSAY - IC50): 7.45 µM
O=C1/C(=C/c2cc(Cl)ccc2O)NC(=S)N1Cc1ccccc1Cl		1.37	IC50 (HEPG2TOX_HILL_SLOPE 1.93, HEPG2TOX_R_SQUARED 0.989, PBLUC_HILL_SLOPE 8.09, PBLUC_R_SQUARED 0.926, read-out: LUCIFERASE INFECTION ASSAY - IC50): 1.05 µM
Cn1c(N)c(N2CCNCC2)c(=O)n(C)c1=O	> 10	> 10	
COc1ccc([N+](=O)[O-])cc1C(=O)Nc1nc2c(s1)CCCCC2		0.411	IC50 (FFLUC_HILL_SLOPE 3.14, FFLUC_R_SQUARED 0.813, PBLUC_HILL_SLOPE 0.763, PBLUC_R_SQUARED 0.879, read-out: LUCIFERASE INFECTION ASSAY - IC50): 0.0231 µM
O=C(CCCNC(=O)c1ccsc1)NNC(=O)c1ccccc1O		> 10	IC50 (PBLUC_HILL_SLOPE 9.95, PBLUC_R_SQUARED 0.0276, read-out: LUCIFERASE INFECTION ASSAY - IC50): > 10 µM
CN(C)C(=O)COC(=O)c1cccc(CN2C(=O)c3ccccc3C2=O)c1	> 10	> 10	
CCc1ccc(S(=O)(=O)Nc2cc(Cl)c(O)c3ccccc23)cc1		> 10	IC50 (PBLUC_HILL_SLOPE 0.706, PBLUC_R_SQUARED 0.416, read-out: LUCIFERASE INFECTION ASSAY - IC50): 1.42 µM
CCCCCCCCCCCCSC(=S)c1c(C)[nH]n(-c2ccccc2)c1=O	> 7.88	> 7.88	
Cc1cc(C(=O)CSc2nc(N)nc(N)n2)c(C)n1CCC1=CCCCC1	> 10	> 10	
Cc1ccc(C)c(-c2nn(CC(=O)c3cc(C)n(C)c3C)c(=O)c3ccccc23)c1	> 10	> 10	
